Data on one molecule can be found in patent US8187822B2, “Methods to identify modulators” (Givaudan S.A., priority 2007, dated 2012).

This assay has as its target T1, TAS2R16 (Homo sapiens, UniProt Q9NYV7).
T1 construct: The full length gene of human TAS2R44 was amplified by polymerase chain reaction (PCR) using gene-specific primers that span the entire coding region; RSS tag (first 45 amino acids of rat somatostatin receptor subtype 3) (N); expressed in transfected cells; host or cells: HEK293T cells expressing Gα16-gustducin44
T1 sequence (Q9NYV7 1-291): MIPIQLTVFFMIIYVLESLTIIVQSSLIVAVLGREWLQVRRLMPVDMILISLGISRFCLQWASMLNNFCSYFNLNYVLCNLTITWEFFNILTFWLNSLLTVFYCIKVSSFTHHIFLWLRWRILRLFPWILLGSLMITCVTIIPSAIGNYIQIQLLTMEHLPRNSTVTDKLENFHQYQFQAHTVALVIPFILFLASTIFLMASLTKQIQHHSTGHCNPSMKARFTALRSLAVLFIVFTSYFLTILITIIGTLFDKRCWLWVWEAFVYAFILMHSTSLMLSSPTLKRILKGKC
Briefly: Fluo-4 calcium assay, cells expressing TAS2R16 (control of antagonist specificity). The assay is classed as cell-based. To be noted: for P-β-G + test cpd A ΔF/F0: 25 μM test cpd A. Here is the method:
At day 0, the HEK293T cell line expressing Gα16-gustducin44 and a TAS2R bitter taste receptor formed as described in examples 2b or 2c was seeded in antibiotic-free growth medium (standard DMEM with 10% (v/v) heat-inactivated fetal bovine serum, 2 mM L-glutamine[…]) into black wall/clear bottom 96-well plates, coated with poly(ethylenimine) (0.005% v/v) at a concentration of 15,000 cells per well and incubated for 48 hours in humidified atmosphere (37° C., 5% CO2).
At the time of the assay, the growth medium was discarded and the cells were in humidified atmosphere (37° C., 5% CO2) for 1 hour with 50 μl of loading buffer consisting of 1.5 μM Fluo-4 AM and […] probenicid (Sigma-Aldrich, St. Louis, Mo., US) in DMEM.
Afterwards, the 96-well plate was washed 5 times with 100 μl of assay buffer (130 mM NaCl, 5 mM KCl, 10 mM HEPES, 2 mM CaCl2, and 5 mM dextrose, pH 7.4) per well, using an automated plate washer (BioTek). The plate was further incubated for 30 minutes at room temperature in the dark to allow for complete de-esterification of the Fluo-4. Afterwards the plate was washed 5 times with 100 μl of assay buffer per well, and reconstituted with 100 μl of assay buffer per well.
For assay reading, the plate was placed in a Fluorometric Imaging Plate Reader (FLIPR) (FLIPR-TETRA™, Molecular Devices, Sunnyvale, Calif., US), and receptor activation was initiated by addition of 100 μl of a twofold concentrated agonist stock solution (to give the desired agonist end concentration when added to the 100 microliter assay buffer volume), which was prepared in assay buffer.
Fluorescence was continuously monitored for 20 seconds to give a signal baseline (averaged to give F0) prior to agonist addition and for 120 seconds after agonist addition. The change in signal divided by F0 gives ΔF/F0 indicated in the table, with ΔF being the maximum signal occurring within the 120 seconds minus the minimum signal (occurring within the 120 seconds after agonist addition.
All data was collected from at least two independent experiments each carried out in triplicate.
A concentration-response analysis was performed and EC50 values were calculated by nonlinear regression using the function f(x)=(a−d)/(1+(x/C)^nh)+d; with a=minimum signal, d=maximum signal, nh=hill coefficient, C=EC50, and x=agonist concentration. EC50 is the molar concentration of an agonist which produces 50% of the maximum possible effective response for that agonist.
The obtained calcium signals were corrected for the response of cells expressing only the G Protein α subunit (Gα16-gustducin44) and normalized to the fluorescence of cells prior to the stimulus using ΔF/F0 (Fmax−Fmin/F0).
All cells were HEK293T cells stably expressing Gα16-gustducin44, or expressing Gα16-gustducin44 and a TAS2R receptor (TAS2R44, TAS2R16).
The method was carried out as described in example 3 subject to the following modifications: The samples were tested with and without test compound A (test cpd A) and the signals were compared. The test compound was dissolved in dimethylsulfoxide (DMSO), and a negative control with equivalent DMSO concentration (0.02%) was performed accordingly to exclude a potential inhibitory effect of the solvent.
As a control of antagonist specificity, the response of an unrelated bitter taste receptor (TAS2R16) to its agonist phenyl-β-glucopyranosides is also detected (see results in table 8 herein below).

`CC1=CCC(C/C=C/C(=O)O)C1(C)C` (stereo not shown) [test cpd A, (E)-4-(2,2,3-trimethylcyclopent-3-enyl)but-2-enoic acid]: the “P-β-G + test cpd A ΔF/F0” value (P-β-G 0.0391 mM) is −0.013; the “P-β-G + test cpd A ΔF/F0” value (P-β-G 0.0781 mM) is 0.108; the “P-β-G + test cpd A ΔF/F0” value (P-β-G 0.1563 mM) is reported as 0.702; the “P-β-G + test cpd A ΔF/F0” value (P-β-G 0.3125 mM) is given as 1.548; the “P-β-G + test cpd A ΔF/F0” value (P-β-G 0.6250 mM) was 2.139; the “P-β-G + test cpd A ΔF/F0” value (P-β-G 1.2500 mM) is given as 2.367. Besides, the “P-β-G + test cpd A ΔF/F0” value by setting is: (P-β-G 2.5000 mM) 2.480; (P-β-G 5.0000 mM) 2.646; (P-β-G 10.0000 mM) 2.830. Besides, the “effect on the response of TAS2R16 to phenyl-β-glucopyranoside, in words” value (test compound at 25 μM) is listed as “does not block the response”.
